Test results from patent US11873298B2, “Compounds and uses thereof” (JANSSEN PHARMACEUTICA NV, priority 2017, dated 2024).

Tests used:
SCD5 = target: T1, SCD5 (Homo sapiens, UniProt Q86SK9); assay: Growth inhibition of humanized yeast strain expressing SCD5 as sole desaturase; format: cell-based; settings: humanized yeast strain expressing SCD5
T1 construct: host or cells: S. cerevisiae ole1Δ strain (W303 pdr1Δ pdr3Δ background), plasmid pRS316 with TDH3 promoter and CYC1 terminator
T1 sequence (Q86SK9 1-330): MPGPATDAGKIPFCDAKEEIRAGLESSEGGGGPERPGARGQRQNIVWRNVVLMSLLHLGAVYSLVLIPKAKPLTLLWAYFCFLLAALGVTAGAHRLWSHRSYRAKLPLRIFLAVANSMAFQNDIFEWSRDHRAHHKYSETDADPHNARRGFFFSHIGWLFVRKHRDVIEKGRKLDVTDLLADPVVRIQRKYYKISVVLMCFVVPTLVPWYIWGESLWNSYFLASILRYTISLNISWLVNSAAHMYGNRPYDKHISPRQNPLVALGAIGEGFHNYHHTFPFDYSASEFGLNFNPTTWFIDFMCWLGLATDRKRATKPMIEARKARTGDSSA
Outline: (§1)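 ole1Δ yeast (W303 pdr1Δ pdr3Δ background) carrying plasmid-borne Ole1, SCD1 or SCD5, grown in uracil-free media; cultures pre-grown in raffinose, seeded at 2× density 0.02 in galactose media with compound. Growth read as OD600 after 24 h at 30° C. for Ole1, 40 h for SCD1/SCD5.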

[1] = test system: yeast strains expressing the human α-synuclein; assay: Yeast α-synuclein toxicity rescue assay (OD600 growth); settings: 40 h; for EC50: read-out: α-Syn EC50; for Emax: read-out: α-Syn Emax
[2] = test system: yeast strains expressing the human ApoE4; assay: Yeast ApoE4 toxicity rescue assay (OD600 growth); settings: 24 h; for EC50: read-out: ApoE4 EC50; for Emax: read-out: ApoE4 Emax
Ole1 = target: T2, Ole1 (Saccharomyces cerevisiae, UniProt P21147); assay: Growth inhibition of yeast strain expressing Ole1 as sole desaturase; format: cell-based; settings: yeast strain expressing Ole1 as sole desaturase
T2 construct: expressed in transfected cells; host or cells: S. cerevisiae ole1Δ strain (W303 pdr1Δ pdr3Δ background), plasmid pRS316 with TDH3 promoter and CYC1 terminator
T2 sequence (P21147 1-510): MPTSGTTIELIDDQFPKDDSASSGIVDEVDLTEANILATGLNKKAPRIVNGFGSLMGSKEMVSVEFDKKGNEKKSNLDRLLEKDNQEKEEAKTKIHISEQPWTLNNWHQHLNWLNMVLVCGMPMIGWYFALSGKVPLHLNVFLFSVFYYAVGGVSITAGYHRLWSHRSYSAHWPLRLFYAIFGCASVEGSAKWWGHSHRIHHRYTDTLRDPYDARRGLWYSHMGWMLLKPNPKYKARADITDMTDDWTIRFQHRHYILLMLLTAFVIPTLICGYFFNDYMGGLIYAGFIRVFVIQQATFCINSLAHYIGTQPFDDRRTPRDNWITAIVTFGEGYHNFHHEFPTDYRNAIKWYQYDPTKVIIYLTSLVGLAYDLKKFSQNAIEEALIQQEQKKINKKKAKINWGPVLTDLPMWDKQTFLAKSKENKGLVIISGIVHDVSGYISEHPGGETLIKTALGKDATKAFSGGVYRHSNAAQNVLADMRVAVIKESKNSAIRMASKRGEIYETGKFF
Outline: as §1

SCD1 = target: T3, SCD1 (Homo sapiens, UniProt O00767); assay: Growth inhibition of humanized yeast strain expressing SCD1 as sole desaturase; format: cell-based; settings: humanized yeast strain expressing SCD1
T3 construct: host or cells: S. cerevisiae ole1Δ strain (W303 pdr1Δ pdr3Δ background), plasmid pRS316 with TDH3 promoter and CYC1 terminator
T3 sequence (O00767 1-359): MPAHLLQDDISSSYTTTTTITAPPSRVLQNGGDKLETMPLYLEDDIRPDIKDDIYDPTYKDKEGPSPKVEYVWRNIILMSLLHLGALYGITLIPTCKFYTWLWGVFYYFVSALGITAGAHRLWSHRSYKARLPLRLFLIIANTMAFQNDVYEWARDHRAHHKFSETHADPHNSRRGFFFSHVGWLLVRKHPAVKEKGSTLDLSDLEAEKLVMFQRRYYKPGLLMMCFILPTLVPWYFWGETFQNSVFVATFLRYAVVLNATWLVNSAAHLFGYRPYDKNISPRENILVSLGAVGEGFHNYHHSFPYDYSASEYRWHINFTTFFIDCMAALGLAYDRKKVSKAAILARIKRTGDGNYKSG
Outline: as §1

Row | Structure (SMILES) | IC50 (SCD5) [µM] | SCD5 % Max Inhibition (SCD5) [%] | EC50 [1] [µM] | Emax [1] [%] | EC50 [2] [µM] | Emax [2] [%] | IC50 (Ole1) [µM] | OLE1 % Max Inhibition (Ole1) [%] | IC50 (SCD1) [µM] | SCD1 % Max Inhibition (SCD1) [%]
1 | COc1ccc(-c2noc(C3CCN(C(=O)C(C)NC(=O)c4ccccc4)CC3)n2)cc1OC (stereo not shown) [Compound 28] | > 45 | 79.98 | 0.066 | 576 | 1.59 | 836 | > 45 | 4.80 | > 45 | 98.15
2 | COc1ccc(-c2noc(C3CCN(C(=O)COCc4ccccc4)CC3)n2)cc1OC [Compound 31] | 25.4 | 24.26 | 7.51 | 438 | 9.81 | 721 | > 45 | 79.60 | > 45 | 81.19
3 | COc1ccc(-c2noc(C3CCN(C(=O)/C=C/C(=O)c4ccccc4)CC3)n2)cc1OC [Compound 33] | > 45 | 24.10 | 0.111 | 260 | 0.717 | 281 | > 45 | 1.55 | > 45 | 8.14
4 | COc1ccc(-c2noc(C3CCN(C(=O)CNC(c4ccccc4)C(F)(F)F)CC3)n2)cc1OC (stereo not shown) [Compound 34] | > 45 | 5.37 | 11.1 | 562 |  | 596 | > 45 | 76.89 | > 45 | 42.55
5 | COc1ccc(-c2nsc(C3CCN(C(=O)CNC(=O)c4ccccc4)CC3)n2)cc1OC [Compound 35] | > 45 | 68.57 | 0.052 | 626 | 1.12 | 911 | > 45 | 3.66 | > 45 | 79.23
6 | COc1ccc(-c2nc(C3CCN(C(=O)CNC(=O)c4ccccc4)CC3)no2)cc1OC [Compound 36] | > 45 | 63.86 | 1.76 | 629 | 2.15 | 908 | > 45 | 17.70 | 30 | 64.67
7 | COc1ccc(-c2coc(C3CCN(C(=O)CNC(=O)c4ccccc4)CC3)n2)cc1OC [Compound 37] | > 45 | 74.18 | 2.21 | 608 | 6.53 | 849 | > 45 | 9.99 | > 45 | 81.44
8 | COc1ccc(-c2csc(C3CCN(C(=O)CNC(=O)c4ccccc4)CC3)n2)cc1OC [Compound 38] | 41 | 64.24 | 3.3 | 336 | 6.01 | 750 | > 45 | 20.26 | > 45 | 72.81
9 | O=C(NCC(=O)N1CCC(c2nc(-c3ccc(F)cc3)no2)CC1)c1ccccc1 [Compound 41] | > 45 | 43.51 | 10.9 | 211 |  | 400 | > 45 | 85.45 | 38.7 | 55.28
10 | O=C(NCC(=O)N1CCC(c2nc(-c3cccc(F)c3)no2)CC1)c1ccccc1 [Compound 42] | > 45 | 47.40 | 12.5 | 255 |  | 399 | > 45 | 95.43 | > 45 | 90.77
11 | O=C(NCC(=O)N1CCC(c2nc(-c3ccccc3F)no2)CC1)c1ccccc1 [Compound 43] | > 45 | 65.66 | 14.6 | 222 | 17.7 | 517 | > 45 | 107.35 | > 45 | 76.52
12 | COc1ccc(-c2noc(C3CCN(C(=O)Cc4ccccc4)CC3)n2)cc1OC [Compound 44] | > 45 | 10.99 | 10.9 | 579 | 13.3 | 676 | > 45 | 93.69 | > 45 | 17.96
13 | COc1ccc(-c2noc(C3CCN(C(=O)CNC(=O)C4CCCCC4)CC3)n2)cc1OC [Compound 48] | > 45 | 75.26 | 1.47 | 615 | 2.94 | 874 | > 45 | 8.16 | 39.3 | 63.58
14 | COc1ccc(-c2noc(N3CCC(C(=O)NCCc4ccccc4)CC3)n2)cc1OC [Compound 49] | > 45 | 63.18 | 1.47 | 636 | 4.34 | 942 | > 45 | 34.89 | > 45 | 61.29
15 | Cc1ccc(-c2nc(C3CCN(C(=O)C4CC(=O)N(c5ccc(C)c(C)c5)C4)CC3)no2)cc1 (stereo not shown) [Compound 50] | > 45 | 46.80 | 7.86 | 85 |  | 133 | > 45 | 98.10 |  | 67.05
16 | Cc1cccc(-c2nc(C3CCN(C(=O)C4CC(=O)N(c5ccc(C)c(C)c5)C4)CC3)no2)c1 (stereo not shown) [Compound 51] | > 45 | 6.59 | 10.9 | 137 |  | 286 | > 45 | 102.56 | > 45 | 76.83
17 | CC(C)c1ccc(C(=O)N2CCC(c3noc(-c4cccc(F)c4)n3)CC2)cc1 [Compound 52] | > 45 | −1.01 | 9.06 | 82 | 14.5 | 154 | > 45 | 11.78 | > 45 | 1.65
18 | CCOc1ccc(-c2noc(C3CCN(C(=O)N4CCCCC4)CC3)n2)cc1OC [Compound 53] | > 45 | 2.94 | 6.6 | 81 | 16.6 | 296 | > 45 | 98.51 | > 45 | 79.96
19 | COc1ccc(-c2noc(C3CCN(C(=O)N4CCCCC4)CC3)n2)cc1OC [Compound 54] | > 45 | 47.60 | 9.1 | 95 | 17.3 | 240 | > 45 | 85.34 | > 45 | 82.41
